Test results taken from patent US9211310B2, “Use of a Chinese medicine composition in preparing medicaments for treating secondary prevention of myocardial infarction” (TASLY PHARMACEUTICAL GROUP CO., LTD, priority 2010, dated 2015).

System: patients after acute myocardial infarction
Test: Angina pectoris score, total and single (frequency/attack times, duration, pain degree, dose of nitroglycerin), same clinical trial
Assay type: in vivo, human
Source text: In order to better understand the present invention, a multi-center, randomized, double-blind, double-dummy and positive drug controlled trial had been conducted. 3508 patients who were in accordance with the diagnostic standards of AMI for 28 days to 2 years and differentiated as Qi deficiency and blood stagnation syndrome by TCM were studied. 0.5 g Chinese medicine composition prepared by the method of EXAMPLE 1 (Coded as QSYQ) was administrated half an hour after meal, 3 times per day. Aspirine was used as a positive drug. The patients were treated for 1 year and observed for 6 months.
They included the overall survival time, angina pectoris score, TCM symptom score and life quality score, where angina pectoris score, TCM symptom score and life quality score were evaluated at randomization, in 1st, 3rd, 6th, 9th, 12th month after treatment and 18th month after follow-up.
Total angina pectoris score was described on every observation period and the change of observation in comparison with baseline. T-test or Wilcoxon rank sum test were used for inter-group comparison. Grade of total score was evaluated on every observation and Wilcoxon rank sum test was used for inter-group comparison. T-test and Pairing signed rank sum test were used for analyzing the change of total score on every observation between groups in comparison with the baseline.
Single angina pectoris score was depicted on every observation time-point and the change of observation in comparison with baseline. Wilcoxon rank sum test was used for inter-group comparison. Pairing signed rank sum test was used for analyzing the change of total score on every observation between groups in comparison with the baseline.
Total angina pectoris score was described on every observation period and the change of observation in comparison with the baseline. T-test or Wilcoxon rank sum test were used for inter-group comparison. Grade of total score was evaluated on every observation and Wilcoxon rank sum test was used for inter-group comparison. T-test and Pairing signed rank sum test were used for analyzing the change of total score on every observation between groups in comparison with the baseline.
Single angina pectoris score was described on every observation time-point and the change of observation in comparison with baseline. Wilcoxon rank sum test was used for inter-group comparison. Pairing signed rank sum test was used for analyzing the change of total score on every observation between groups in comparison with the baseline.

CC(=O)Oc1ccccc1C(=O)O [Control group, aspirine]
attack times score, patients (%) (6 months after treatment, score 6, FAS): (0.06%)
attack times score, patients (%) (6 months after treatment, score 6, PP): (0.07%)
change of attack times score, patients (%) (6 months after treatment-baseline, change 0, FAS): (57.95%)
change of attack times score, patients (%) (6 months after treatment-baseline, change 0, PP): (56.80%)
change of attack times score, patients (%) (6 months after treatment-baseline, change 1, FAS): (2.47%)
change of attack times score, patients (%) (6 months after treatment-baseline, change 1, PP): (1.92%)
change of attack times score, patients (%) (6 months after treatment-baseline, change −1, FAS): (15.20%)
change of attack times score, patients (%) (6 months after treatment-baseline, change −1, PP): (16.07%)
change of attack times score, patients (%) (6 months after treatment-baseline, change −2, FAS): (18.70%)
change of attack times score, patients (%) (6 months after treatment-baseline, change −2, PP): (19.92%)
change of attack times score, patients (%) (6 months after treatment-baseline, change −3, FAS): (0.92%)
change of attack times score, patients (%) (6 months after treatment-baseline, change −3, PP): (1.10%)
change of attack times score, patients (%) (6 months after treatment-baseline, change −4, FAS): (1.78%)
change of attack times score, patients (%) (6 months after treatment-baseline, change −4, PP): (1.92%)
change of attack times score, patients (%) (6 months after treatment-baseline, change −5, FAS): (0.00%)
change of attack times score, patients (%) (6 months after treatment-baseline, change −5, PP): (0.00%)
change of attack times score, patients (%) (6 months after treatment-baseline, change −6, FAS): (0.34%)
change of attack times score, patients (%) (6 months after treatment-baseline, change −6, PP): (0.27%)
attack times score, patients (%) (9 months after treatment, score 0, FAS): (47.31%)
attack times score, patients (%) (9 months after treatment, score 0, PP): (49.06%)
attack times score, patients (%) (9 months after treatment, score 1, FAS): (20.30%)
attack times score, patients (%) (9 months after treatment, score 1, PP): (21.62%)
attack times score, patients (%) (9 months after treatment, score 2, FAS): (30.22%)
attack times score, patients (%) (9 months after treatment, score 2, PP): (28.34%)
attack times score, patients (%) (9 months after treatment, score 4, FAS): (2.06%)
attack times score, patients (%) (9 months after treatment, score 4, PP): (0.83%)
attack times score, patients (%) (9 months after treatment, score 6, FAS): (0.11%)
attack times score, patients (%) (9 months after treatment, score 6, PP): (0.14%)
attack times score, patients (%) (12 months after treatment, score 0, FAS): (52.12%)
attack times score, patients (%) (12 months after treatment, score 0, PP): (55.03%)
attack times score, patients (%) (12 months after treatment, score 1, FAS): (22.02%)
attack times score, patients (%) (12 months after treatment, score 1, PP): (23.88%)
attack times score, patients (%) (12 months after treatment, score 2, FAS): (23.91%)
attack times score, patients (%) (12 months after treatment, score 2, PP): (20.53%)
attack times score, patients (%) (12 months after treatment, score 4, FAS): (1.89%)
attack times score, patients (%) (12 months after treatment, score 4, PP): (0.56%)
attack times score, patients (%) (12 months after treatment, score 6, FAS): (0.06%)
change of attack times score, patients (%) (12 months after treatment-baseline, change 0, FAS): (45.61%)
change of attack times score, patients (%) (12 months after treatment-baseline, change 0, PP): (41.86%)
change of attack times score, patients (%) (12 months after treatment-baseline, change 1, FAS): (2.07%)
change of attack times score, patients (%) (12 months after treatment-baseline, change 1, PP): (1.33%)
change of attack times score, patients (%) (12 months after treatment-baseline, change 2, FAS): (1.72%)
change of attack times score, patients (%) (12 months after treatment-baseline, change 2, PP): (1.19%)
change of attack times score, patients (%) (12 months after treatment-baseline, change 3, FAS): (0.06%)
change of attack times score, patients (%) (12 months after treatment-baseline, change 4, FAS): (0.17%)
change of attack times score, patients (%) (12 months after treatment-baseline, change 4, PP): (0.14%)
change of attack times score, patients (%) (12 months after treatment-baseline, change −1, FAS): (22.89%)
change of attack times score, patients (%) (12 months after treatment-baseline, change −1, PP): (25.44%)
change of attack times score, patients (%) (12 months after treatment-baseline, change −2, FAS): (23.01%)
change of attack times score, patients (%) (12 months after treatment-baseline, change −2, PP): (25.02%)
change of attack times score, patients (%) (12 months after treatment-baseline, change −3, FAS): (0.86%)
change of attack times score, patients (%) (12 months after treatment-baseline, change −3, PP): (1.05%)
change of attack times score, patients (%) (12 months after treatment-baseline, change −4, FAS): (3.16%)
change of attack times score, patients (%) (12 months after treatment-baseline, change −4, PP): (3.56%)
change of attack times score, patients (%) (12 months after treatment-baseline, change −5, FAS): (0.06%)
change of attack times score, patients (%) (12 months after treatment-baseline, change −5, PP): (0.07%)
change of attack times score, patients (%) (12 months after treatment-baseline, change −6, FAS): (0.40%)
change of attack times score, patients (%) (12 months after treatment-baseline, change −6, PP): (0.35%)
attack times score, patients (%) (Baseline, score 0, FAS): (27.54%)
attack times score, patients (%) (Baseline, score 0, PP): (26.99%)
attack times score, patients (%) (Baseline, score 1, FAS): (9.06%)
